# In PubChem BioAssay (NCI):
#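 Grown in 96-well plates, cells were treated for 48 hours with each compound at five concentrations. Insufficient inhibition: endpoint recorded as highest concentration tested. GI50: concentration for 50% inhibition of growth. TGI is the concentration that stops growth completely.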
# Legend:
# Assay in all cases: NCI anticancer screen, dose series, 48 h
# NCI-H226 lung = tested on: NCI-H226 lung
# ACHN renal = tested on: ACHN renal
# MDA-MB-231 breast = tested on: MDA-MB-231 breast
# HOP-92 NSCLC = tested on: HOP-92 NSCLC
# SF-268 CNS = tested on: SF-268 CNS
# EKVX NSCLC = tested on: EKVX NSCLC
# HT29 colon = tested on: HT29 colon
# NCI-H23 lung = tested on: NCI-H23 lung
# LOX IMVI melanoma = tested on: LOX IMVI melanoma
# HL-60(TB) leukemia = tested on: HL-60(TB) leukemia
# CCRF-CEM leukemia = tested on: CCRF-CEM leukemia
# NCI-H460 lung = tested on: NCI-H460 lung
# U251 CNS = tested on: U251 CNS
# SNB-75 CNS = tested on: SNB-75 CNS
# HCT-116 colon = tested on: HCT-116 colon
# TK-10 renal = tested on: TK-10 renal
# OVCAR-5 ovarian = tested on: OVCAR-5 ovarian
# BT-549 breast = tested on: BT-549 breast
# A498 renal = tested on: A498 renal
# UO-31 renal = tested on: UO-31 renal
# IGROV1 ovarian = tested on: IGROV1 ovarian
# RXF 393 renal = tested on: RXF 393 renal
# DU-145 prostate = tested on: DU-145 prostate
# SK-MEL-5 melanoma = tested on: SK-MEL-5 melanoma
# NCI/ADR-RES ovarian = tested on: NCI/ADR-RES ovarian
# SK-MEL-2 melanoma = tested on: SK-MEL-2 melanoma
# KM12 colon = tested on: KM12 colon
# PC-3 prostate = tested on: PC-3 prostate
# SR leukemia = tested on: SR leukemia
# OVCAR-8 ovarian = tested on: OVCAR-8 ovarian
# NCI-H522 lung = tested on: NCI-H522 lung
# UACC-62 melanoma = tested on: UACC-62 melanoma
# K-562 leukemia = tested on: K-562 leukemia
# MALME-3M melanoma = tested on: MALME-3M melanoma
# SNB-19 CNS = tested on: SNB-19 CNS
# SK-OV-3 ovarian = tested on: SK-OV-3 ovarian
# COLO 205 colon = tested on: COLO 205 colon
# T-47D breast = tested on: T-47D breast
# SF-539 CNS = tested on: SF-539 CNS
# 786-0 renal = tested on: 786-0 renal
# HCC-2998 colon = tested on: HCC-2998 colon
# RPMI-8226 leukemia = tested on: RPMI-8226 leukemia
# UACC-257 melanoma = tested on: UACC-257 melanoma
# MOLT-4 leukemia = tested on: MOLT-4 leukemia
# SF-295 CNS = tested on: SF-295 CNS
# MDA-MB-435 = tested on: MDA-MB-435
# SK-MEL-28 melanoma = tested on: SK-MEL-28 melanoma
# M14 melanoma = tested on: M14 melanoma
# SN12C renal = tested on: SN12C renal
compound,measurement,setting,value
COc1ccc2nc3c(n2c1)C(=O)C(=O)c1ccccc1-3,GI50,NCI-H226 lung,2.03 µM
same,TGI,NCI-H226 lung,4.89 µM
same,GI50,ACHN renal,1.46 µM
same,TGI,ACHN renal,2.77 µM
same,GI50,MDA-MB-231 breast,2.53 µM
same,TGI,MDA-MB-231 breast,10.6 µM
same,GI50,HOP-92 NSCLC,3.09 µM
same,TGI,HOP-92 NSCLC,9.53 µM
same,GI50,SF-268 CNS,2.05 µM
same,TGI,SF-268 CNS,5.15 µM
same,GI50,EKVX NSCLC,1.8 µM
same,TGI,EKVX NSCLC,4.83 µM
same,GI50,HT29 colon,2.59 µM
same,TGI,HT29 colon,6.19 µM
same,GI50,NCI-H23 lung,1.16 µM
same,TGI,NCI-H23 lung,4.21 µM
same,GI50,LOX IMVI melanoma,0.466 µM
same,TGI,LOX IMVI melanoma,1.89 µM
same,GI50,HL-60(TB) leukemia,2.23 µM
same,TGI,HL-60(TB) leukemia,5.57 µM
same,GI50,CCRF-CEM leukemia,2.6 µM
same,TGI,CCRF-CEM leukemia,6.62 µM
same,GI50,NCI-H460 lung,1.63 µM
same,TGI,NCI-H460 lung,3.65 µM
same,GI50,U251 CNS,1.51 µM
same,TGI,U251 CNS,2.85 µM
same,GI50,SNB-75 CNS,1.4 µM
same,TGI,SNB-75 CNS,2.77 µM
same,GI50,HCT-116 colon,1.58 µM
same,TGI,HCT-116 colon,3.7 µM
same,GI50,TK-10 renal,2.62 µM
same,TGI,TK-10 renal,4.78 µM
same,GI50,OVCAR-5 ovarian,1.8 µM
same,TGI,OVCAR-5 ovarian,3.32 µM
same,GI50,BT-549 breast,1.39 µM
same,TGI,BT-549 breast,2.69 µM
same,GI50,A498 renal,2.44 µM
same,TGI,A498 renal,6.11 µM
same,GI50,UO-31 renal,1.31 µM
same,TGI,UO-31 renal,2.62 µM
same,GI50,IGROV1 ovarian,1.75 µM
same,TGI,IGROV1 ovarian,5.34 µM
same,GI50,RXF 393 renal,1.84 µM
same,TGI,RXF 393 renal,3.55 µM
same,GI50,DU-145 prostate,1.66 µM
same,TGI,DU-145 prostate,3.18 µM
same,GI50,SK-MEL-5 melanoma,1.67 µM
same,TGI,SK-MEL-5 melanoma,3.06 µM
same,GI50,NCI/ADR-RES ovarian,2.06 µM
same,TGI,NCI/ADR-RES ovarian,6.58 µM
same,GI50,SK-MEL-2 melanoma,1.83 µM
same,TGI,SK-MEL-2 melanoma,3.66 µM
same,GI50,KM12 colon,2.05 µM
same,TGI,KM12 colon,5.04 µM
same,GI50,PC-3 prostate,1.52 µM
same,TGI,PC-3 prostate,9.02 µM
same,GI50,SR leukemia,2.53 µM
same,TGI,SR leukemia,6.59 µM
same,GI50,OVCAR-8 ovarian,2.41 µM
same,TGI,OVCAR-8 ovarian,9.36 µM
same,GI50,NCI-H522 lung,1.54 µM
same,TGI,NCI-H522 lung,3.39 µM
same,GI50,UACC-62 melanoma,1.47 µM
same,TGI,UACC-62 melanoma,2.9 µM
same,GI50,K-562 leukemia,0.939 µM
same,TGI,K-562 leukemia,6.09 µM
same,GI50,MALME-3M melanoma,1.55 µM
same,TGI,MALME-3M melanoma,2.93 µM
same,GI50,SNB-19 CNS,1.98 µM
same,TGI,SNB-19 CNS,4.4 µM
same,GI50,SK-OV-3 ovarian,1.75 µM
same,TGI,SK-OV-3 ovarian,3.57 µM
same,GI50,COLO 205 colon,2.73 µM
same,TGI,COLO 205 colon,8.14 µM
same,GI50,T-47D breast,2.02 µM
same,TGI,T-47D breast,5.5 µM
same,GI50,SF-539 CNS,1.82 µM
same,TGI,SF-539 CNS,3.24 µM
same,GI50,786-0 renal,2.07 µM
same,TGI,786-0 renal,4.4 µM
same,GI50,HCC-2998 colon,1.83 µM
same,TGI,HCC-2998 colon,3.63 µM
same,GI50,RPMI-8226 leukemia,1.52 µM
same,TGI,RPMI-8226 leukemia,5.36 µM
same,GI50,UACC-257 melanoma,1.73 µM
same,TGI,UACC-257 melanoma,3.13 µM
same,GI50,MOLT-4 leukemia,2.43 µM
same,TGI,MOLT-4 leukemia,5.81 µM
same,GI50,SF-295 CNS,1.62 µM
same,TGI,SF-295 CNS,3.03 µM
same,GI50,MDA-MB-435,0.192 µM
same,TGI,MDA-MB-435,0.353 µM
same,GI50,SK-MEL-28 melanoma,1.89 µM
same,TGI,SK-MEL-28 melanoma,3.52 µM
same,GI50,M14 melanoma,1.75 µM
same,TGI,M14 melanoma,3.32 µM
N=C(N)c1ccc(-c2ccc(-c3ccccc3)s2)s1,GI50,MDA-MB-231 breast,0.753 µM
same,TGI,MDA-MB-231 breast,2.5 µM
same,GI50,HOP-92 NSCLC,0.0655 µM
same,TGI,HOP-92 NSCLC,2.17 µM
same,GI50,NCI-H23 lung,< 0.01 µM
same,TGI,NCI-H23 lung,1.37 µM
same,GI50,HL-60(TB) leukemia,0.0287 µM
same,TGI,HL-60(TB) leukemia,1.43 µM
same,GI50,OVCAR-5 ovarian,0.374 µM
same,TGI,OVCAR-5 ovarian,2.45 µM
same,GI50,BT-549 breast,0.0267 µM
same,TGI,BT-549 breast,2 µM
same,GI50,A498 renal,< 0.01 µM
same,TGI,A498 renal,1.34 µM
same,GI50,DU-145 prostate,< 0.01 µM
same,TGI,DU-145 prostate,1.1 µM
same,GI50,SK-MEL-2 melanoma,1.76 µM
same,TGI,SK-MEL-2 melanoma,3.38 µM
same,GI50,PC-3 prostate,0.249 µM
same,TGI,PC-3 prostate,2.03 µM
same,GI50,UACC-62 melanoma,0.0156 µM
same,TGI,UACC-62 melanoma,1.3 µM
same,GI50,SN12C renal,0.156 µM
same,TGI,SN12C renal,1.95 µM
same,GI50,MALME-3M melanoma,1.17 µM
same,TGI,MALME-3M melanoma,2.59 µM
same,GI50,HCC-2998 colon,1.05 µM
same,TGI,HCC-2998 colon,2.36 µM
same,GI50,UACC-257 melanoma,0.156 µM
same,TGI,UACC-257 melanoma,2.31 µM
same,GI50,SF-295 CNS,0.0321 µM
same,TGI,SF-295 CNS,0.273 µM
same,GI50,M14 melanoma,< 0.01 µM
same,TGI,M14 melanoma,0.0155 µM
